# Biological target: Sigma non-opioid intracellular receptor 1 (Cavia porcellus) (UniProt Q60492)
# Assay: Binding affinity for sigma 1 opioid receptor, measured on guinea pig brain membranes using [3H]- (+)-pentazocine as radioligand
# Sequence of Sigma non-opioid intracellular receptor 1 (Cavia porcellus) (Q60492 whole entry, looked up): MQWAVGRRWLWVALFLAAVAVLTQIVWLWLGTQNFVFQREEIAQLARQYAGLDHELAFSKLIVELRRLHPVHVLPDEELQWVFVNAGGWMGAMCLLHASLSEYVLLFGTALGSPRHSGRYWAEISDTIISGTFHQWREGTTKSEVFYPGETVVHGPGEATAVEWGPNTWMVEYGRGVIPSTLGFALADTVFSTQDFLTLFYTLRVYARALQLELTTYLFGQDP
row,SMILES,Ki
1,O=C(Nc1cccc2ccccc12)NC1CCN(Cc2ccccc2)CC1 [1-(1-Benzyl-piperidin-4-yl)-3-naphthalen-1-yl-urea],22.7 nM
2,O=C(Cc1ccccc1F)NC1CCN(Cc2cccc(I)c2)CC1 [2-(2-Fluoro-phenyl)-N-[1-(3-iodo-benzyl)-piperidin-4-yl]-acetamide],15.4 nM
3,O=C(Cc1ccccc1F)NC1CCN(Cc2ccc(I)cc2)CC1 [2-(2-Fluoro-phenyl)-N-[1-(4-iodo-benzyl)-piperidin-4-yl]-acetamide],4.2 nM
4,O=C(Cc1cccc(Br)c1)NC1CCN(Cc2cccc(I)c2)CC1 [2-(3-Bromo-phenyl)-N-[1-(3-iodo-benzyl)-piperidin-4-yl]-acetamide],3.49 nM
5,O=C(Cc1cccc(Br)c1)NC1CCN(Cc2ccc(F)cc2)CC1 [2-(3-Bromo-phenyl)-N-[1-(4-fluoro-benzyl)-piperidin-4-yl]-acetamide],1.21 nM
6,O=C(Cc1cccc(Br)c1)NC1CCN(Cc2ccc(I)cc2)CC1 [2-(3-Bromo-phenyl)-N-[1-(4-iodo-benzyl)-piperidin-4-yl]-acetamide],1.78 nM
7,O=C(Cc1cccc(Cl)c1)NC1CCN(Cc2cccc(I)c2)CC1 [2-(3-Chloro-phenyl)-N-[1-(3-iodo-benzyl)-piperidin-4-yl]-acetamide],2.31 nM
8,O=C(Cc1cccc(Cl)c1)NC1CCN(Cc2ccc(F)cc2)CC1 [2-(3-Chloro-phenyl)-N-[1-(4-fluoro-benzyl)-piperidin-4-yl]-acetamide],1.15 nM
9,O=C(Cc1cccc(Cl)c1)NC1CCN(Cc2ccc(I)cc2)CC1 [2-(3-Chloro-phenyl)-N-[1-(4-iodo-benzyl)-piperidin-4-yl]-acetamide],3.21 nM
10,O=C(Cc1cccc(F)c1)NC1CCN(Cc2cccc(I)c2)CC1 [2-(3-Fluoro-phenyl)-N-[1-(3-iodo-benzyl)-piperidin-4-yl]-acetamide],4.29 nM
11,O=C(Cc1cccc(F)c1)NC1CCN(Cc2ccc(I)cc2)CC1 [2-(3-Fluoro-phenyl)-N-[1-(4-iodo-benzyl)-piperidin-4-yl]-acetamide],2.25 nM
12,O=C(Cc1ccccc1)NC1CCN(Cc2ccccc2C(F)(F)F)CC1 [2-Phenyl-N-[1-(2-trifluoromethyl-benzyl)-piperidin-4-yl]-acetamide],> 1000 nM
13,O=C(Cc1ccccc1)NC1CCN(Cc2cccc(C(F)(F)F)c2)CC1 [2-Phenyl-N-[1-(3-trifluoromethyl-benzyl)-piperidin-4-yl]-acetamide],141 nM
14,O=C(Cc1ccccc1)NC1CCN(Cc2ccc(C(F)(F)F)cc2)CC1 [2-Phenyl-N-[1-(4-trifluoromethyl-benzyl)-piperidin-4-yl]-acetamide],87 nM
15,O=C(Cc1cnc[nH]1)NC1CCN(Cc2ccccc2)CC1 [N-(1-Benzyl-piperidin-4-yl)-2-(1H-imidazol-4-yl)-acetamide],248 nM
16,O=C(Cc1c[nH]c2ccccc12)NC1CCN(Cc2ccccc2)CC1 [N-(1-Benzyl-piperidin-4-yl)-2-(1H-indol-3-yl)-acetamide],10.9 nM
17,O=C(Cc1ccc(I)cc1)NC1CCN(Cc2ccccc2)CC1 [N-(1-Benzyl-piperidin-4-yl)-2-(4-iodo-phenyl)-acetamide],13.8 nM
18,O=C(Cc1c[nH]c2ccc(Br)cc12)NC1CCN(Cc2ccccc2)CC1 [N-(1-Benzyl-piperidin-4-yl)-2-(5-bromo-1H-indol-3-yl)-acetamide],51.9 nM
19,COc1ccc2[nH]cc(CC(=O)NC3CCN(Cc4ccccc4)CC3)c2c1 [N-(1-Benzyl-piperidin-4-yl)-2-(5-methoxy-1H-indol-3-yl)-acetamide],125 nM
20,COc1ccc2c(c1)C(CC(=O)NC1CCN(Cc3ccccc3)CC1)CC2=O (configuration not stated) [N-(1-Benzyl-piperidin-4-yl)-2-(6-methoxy-3-oxo-indan-1-yl)-acetamide],299 nM
21,"O=C1C=CC2C(CC(=O)NC3CCN(Cc4ccccc4)CC3)=CC(=O)OC2C1 (configuration not stated) [N-(1-Benzyl-piperidin-4-yl)-2-(7-hydroxy-2-oxo-4a,8a-dihydro-2H-chromen-4-yl)-acetamide]",> 1000 nM

row,SMILES,Ki
1,O=C(CSc1ncccn1)NC1CCN(Cc2ccccc2)CC1 [N-(1-Benzyl-piperidin-4-yl)-2-(pyrimidin-2-ylsulfanyl)-acetamide],150 nM
2,O=C(Cc1cccc2ccccc12)NC1CCN(Cc2ccccc2)CC1 [N-(1-Benzyl-piperidin-4-yl)-2-naphthalen-1-yl-acetamide],4.64 nM
3,O=C(Cc1ccc2ccccc2c1)NC1CCN(Cc2ccccc2)CC1 [N-(1-Benzyl-piperidin-4-yl)-2-naphthalen-2-yl-acetamide],61.8 nM
4,O=C(Cc1ccccn1)NC1CCN(Cc2ccccc2)CC1 [N-(1-Benzyl-piperidin-4-yl)-2-pyridin-2-yl-acetamide],236 nM
5,O=C(Cc1cccnc1)NC1CCN(Cc2ccccc2)CC1 [N-(1-Benzyl-piperidin-4-yl)-2-pyridin-3-yl-acetamide],269 nM
6,O=C(Cc1ccncc1)NC1CCN(Cc2ccccc2)CC1 [N-(1-Benzyl-piperidin-4-yl)-2-pyridin-4-yl-acetamide],298 nM
7,O=C(Cc1cccs1)NC1CCN(Cc2ccccc2)CC1 [N-(1-Benzyl-piperidin-4-yl)-2-thiophen-2-yl-acetamide],3.93 nM
8,O=C(Cc1ccsc1)NC1CCN(Cc2ccccc2)CC1 [N-(1-Benzyl-piperidin-4-yl)-2-thiophen-3-yl-acetamide],7.2 nM
9,O=C(Cc1ccccc1)NC1CCN(Cc2ccc3ccccc3c2)CC1 [N-(1-Naphthalen-2-ylmethyl-piperidin-4-yl)-2-phenyl-acetamide],23.9 nM
10,O=C(Cc1ccccc1)NC1CCN(CCc2ccccc2)CC1 [N-(1-Phenethyl-piperidin-4-yl)-2-phenyl-acetamide],31.2 nM
11,O=C(Cc1ccccc1)NC1CCN(Cc2ccccc2F)CC1 [N-[1-(2-Fluoro-benzyl)-piperidin-4-yl]-2-phenyl-acetamide],10.2 nM
12,O=C(Cc1ccccc1)NC1CCN(Cc2ccccc2I)CC1 [N-[1-(2-Iodo-benzyl)-piperidin-4-yl]-2-phenyl-acetamide],347 nM
13,"O=C(Cc1ccccc1)NC1CCN(Cc2ccc(Cl)c(Cl)c2)CC1 [N-[1-(3,4-Dichloro-benzyl)-piperidin-4-yl]-2-phenyl-acetamide]",7.24 nM
14,"O=C(Cc1ccccc1)NC1CCN(Cc2ccc(F)c(F)c2)CC1 [N-[1-(3,4-Difluoro-benzyl)-piperidin-4-yl]-2-phenyl-acetamide]",6.3 nM
15,O=C(Cc1ccccc1)NC1CCN(Cc2cccc(F)c2)CC1 [N-[1-(3-Fluoro-benzyl)-piperidin-4-yl]-2-phenyl-acetamide],8.22 nM
16,O=C(Cc1ccccc1)NC1CCN(Cc2cccc(I)c2)CC1 [N-[1-(3-Iodo-benzyl)-piperidin-4-yl]-2-phenyl-acetamide],6.75 nM
17,O=C(Cc1ccccc1F)NC1CCN(Cc2ccc(F)cc2)CC1 [N-[1-(4-Fluoro-benzyl)-piperidin-4-yl]-2-(2-fluoro-phenyl)-acetamide],3.15 nM
18,O=C(Cc1cccc(F)c1)NC1CCN(Cc2ccc(F)cc2)CC1 [N-[1-(4-Fluoro-benzyl)-piperidin-4-yl]-2-(3-fluoro-phenyl)-acetamide],5.51 nM
19,O=C(Cc1ccccc1)NC1CCN(Cc2ccc(F)cc2)CC1 [N-[1-(4-Fluoro-benzyl)-piperidin-4-yl]-2-phenyl-acetamide],6.59 nM
20,O=C(Cc1ccccc1)NC1CCN(Cc2ccc(I)cc2)CC1 [N-[1-(4-Iodo-benzyl)-piperidin-4-yl]-2-phenyl-acetamide],9.03 nM
21,O=C(Cc1ccccc1)NC1CCN(Cc2ccc([N+](=O)[O-])cc2)CC1 [N-[1-(4-Nitro-benzyl)-piperidin-4-yl]-2-phenyl-acetamide],19.1 nM

# — BindingDB's records for doi:10.1021/jm010384j (Wake Forest University School of Medicine, 2001)
